The results in this text go back to patent publication US20240246934A1, “QUINAZOLINE-BASED COMPOUND, COMPOSITION, AND APPLICATION OF QUINAZOLINE-BASED COMPOUND” (BEIJING SCITECH-MQ PHARMACEUTICALS LIMITED, priority 2021, published 2024).

Read-outs that look alike come from different tables or passages of the source.

In data set [1] the test system is Ba/F3 ERBB2 A775_G776insYVMA. Nature of the data set: Efficacy in nude mouse tumor-bearing model of Ba/F3 ERBB2 A775_G776insYVMA. Type of data set: in vivo, BALB/c nude mice. The following applies: for T/C (%): 30 mg/kg, QD×14, PO, day 14; for effect on tumor size (in words): 30 mg/kg PO. The procedure: In this assay, some compounds of the application were orally administered to a nude mouse tumor-bearing model of Ba/F3 ERBB2 A775_G776insYVMA to study the effect of the compounds of the application on tumor growth.
Preparation of the assay compound: an appropriate weight of the compound to be assayed was weighed, and completely dissolved in an appropriate volume of vehicle (DMSO). The mixture was vortexed or sonicated. Then an appropriate amount of Solutol was added and mixed well. Finally, sterilized drinking water was added and the mixture was mixed by stirring or vortexing to obtain a homogeneous solution or suspension.
Method: All the assays were authorized and agreed by the Animal Welfare Committee. Ba/F3 ERBB2 A775_G776insYVMA in a logarithmic growth period was inoculated subcutaneously into the right back of immunodeficient nude mice (BALB/c nude, female, 6-7 weeks of age, body weight 18±2 g) with 4×10^6 cells/rat. After the tumor grew to 150-200 mm^3, the animals were randomly divided into a treatment group and a control group. For the treatment group, a solution of each assay compound was given, and for the control group, a vehicle solution without the assay compound was given. Both of the treatment group and the control group were administered once a day for about 2 weeks. The dose of each assay article was 30 mg/kg (in terms of effective compound concentration), and the assay compounds were all prepared freshly for use. During the assay, the diameter of loaded tumors was measured twice a week, and the mice were weighed at the same time. The tumor volume (TV) was calculated by the formula: TV=½×a×b^2, where a and b denote length and width, respectively. Relative tumor volume (RTV) was calculated based on the measured results by the formula: RTV=Vt/V0, where V0 is the tumor volume measured at grouping and administration and Vt is the tumor volume at each measurement. The evaluation index of antitumor activity was the relative tumor proliferation rate T/C (%) calculated by the formula: T/C (%)=(TRTV/CRTV)×100%, TRTV: RTV of the administration group; CRTV: RTV of the control group. T and C denote the average tumor volume at a certain time point in the administration group and the control group, respectively.

The next data set addresses EGFR^WT kinase (Homo sapiens, UniProt P00533). Description: EGFR^WT kinase assay (ULight/PT66 TR-FRET). Format: biochemical. In outline: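 Enzyme preincubated 5 min with compound (11-point 3-fold series, duplicate), then ULight-JAK-1 (Tyr1023) peptide and ATP added at 4× stocks of 400 nM and 600 μM; 120 min reaction at room temperature. PT66 antibody TR-FRET read after 60 min; IC50 fitted from inhibition rates.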
On the technique in general: TR-FRET usually uses a lanthanide donor and a delayed reading to cut background.

Data set [2] addresses Ba/F3 HER2 A775_G776insYVMA cells (Homo sapiens, UniProt P04626, DUP772-775, cells depend on it). Description: Inhibition of cell proliferation, CTG method, Ba/F3 HER2 A775_G776insYVMA. Format: cell-based. The method in brief:
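Ba/F3 HER2 A775_G776insYVMA cells in RPMI1640 with 10% FBS were plated at 3000 cells/well and treated directly with compound (top 10 μM, 4-fold, 9 concentrations, duplicates).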

A further data set deals with T1, HER2 kinase (Homo sapiens, UniProt P04626).
T1 construct: purchased Carna Biosciences 08-016
T1 sequence (P04626 23-1255): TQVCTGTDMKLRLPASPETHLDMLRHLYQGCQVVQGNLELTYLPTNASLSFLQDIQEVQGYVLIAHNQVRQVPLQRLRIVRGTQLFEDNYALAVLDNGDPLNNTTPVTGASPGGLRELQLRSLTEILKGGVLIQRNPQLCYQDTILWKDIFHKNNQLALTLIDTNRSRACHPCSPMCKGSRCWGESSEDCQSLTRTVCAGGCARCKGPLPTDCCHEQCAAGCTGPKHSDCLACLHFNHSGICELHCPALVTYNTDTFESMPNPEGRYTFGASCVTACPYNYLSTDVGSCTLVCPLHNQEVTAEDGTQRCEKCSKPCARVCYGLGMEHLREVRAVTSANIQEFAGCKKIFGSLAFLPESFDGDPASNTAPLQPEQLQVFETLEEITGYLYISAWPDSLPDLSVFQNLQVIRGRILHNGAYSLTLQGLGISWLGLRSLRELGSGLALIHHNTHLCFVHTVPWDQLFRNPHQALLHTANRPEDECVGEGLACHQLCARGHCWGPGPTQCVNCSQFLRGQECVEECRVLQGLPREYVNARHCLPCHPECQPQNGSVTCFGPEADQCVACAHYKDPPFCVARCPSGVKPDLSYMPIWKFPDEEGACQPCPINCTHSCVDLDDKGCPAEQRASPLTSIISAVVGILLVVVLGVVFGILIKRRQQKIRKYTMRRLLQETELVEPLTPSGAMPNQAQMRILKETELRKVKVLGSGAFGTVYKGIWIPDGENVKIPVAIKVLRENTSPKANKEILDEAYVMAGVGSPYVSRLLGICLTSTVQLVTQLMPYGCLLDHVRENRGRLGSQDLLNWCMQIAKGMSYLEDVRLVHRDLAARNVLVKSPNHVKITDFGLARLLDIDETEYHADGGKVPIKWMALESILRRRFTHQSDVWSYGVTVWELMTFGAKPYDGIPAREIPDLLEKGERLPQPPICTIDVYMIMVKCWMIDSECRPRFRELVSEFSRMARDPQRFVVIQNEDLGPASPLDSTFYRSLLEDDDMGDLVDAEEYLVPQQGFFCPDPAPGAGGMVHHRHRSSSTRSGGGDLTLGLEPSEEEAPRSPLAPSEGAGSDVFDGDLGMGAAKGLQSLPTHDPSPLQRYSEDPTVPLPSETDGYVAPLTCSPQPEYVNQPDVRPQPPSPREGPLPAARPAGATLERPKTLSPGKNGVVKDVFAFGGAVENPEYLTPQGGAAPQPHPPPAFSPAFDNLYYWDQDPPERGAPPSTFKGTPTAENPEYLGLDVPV
Nature of the data set: HER2 kinase assay (ULight/PT66 TR-FRET). Type of data set: biochemical. In outline: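 HER2 kinase preincubated 5 min with compounds (11-point 3-fold series, duplicates), then reacted 120 min at room temperature with ATP and ULight-poly GT peptide, each prepared at 4× working concentration (40 μM ATP, 400 nM substrate, 40 nM kinase). PT66 antibody added for 60 min, TR-FRET read; IC50 from inhibition curves.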

Data set [3] in a line: Pharmacokinetics in SD rats, single intravenous injection and oral administration. Type of data set: in vivo, SD rat. The following applies: for AUC(0-inf) / AUC(0-t) / Vd / half-life / bioavailability / Cmax / Tmax: SD, rat; for bioavailability: PO 10 mg/kg vs IV 3 mg/kg, read-out: F % (bioavailability). The procedure: In this assay, the pharmacokinetic characteristics of the compounds of the present application were assayed after administration of some of the compounds of the present application to SD rats by single oral administration and intravenous injection. 1. […] The mixture was stirred, vortexed and/or sonicated. Once a solution was obtained, the vehicle was gradually added to a final volume to reach the target concentration. The solution was vortexed, and sonicated to obtain a homogeneous solution. The solution was filtered through a 0.22 μm PVDF membrane. 2. […] The mixture was stirred, vortexed and/or sonicated. Once a solution was obtained, the vehicle was gradually added to a final volume to reach the target concentration. The solution was vortexed, and sonicated to obtain a homogeneous solution. […] Meanwhile, the IV group was not fasted and the PO group was fasted overnight (>12 hrs) and given food 2 hrs after drug administration. All animals had free access to water. The dosing regimen and pharmacokinetic sampling regimen are given in Table 6 and Table 7 below, respectively. […] Rats were administered according to the above regimen, and blood and brain tissue samples were collected and processed at predetermined time points (collection and processing were performed according to conventional methods in the art). […] The supernatant was diluted 2-fold with ultra-pure water, and the samples were analyzed by LC/MS. Pharmacokinetic parameters was calculated using WinNonlin software. The following pharmacokinetic parameters was calculated from the plasma drug concentration-time data: CL (clearance); Vd (apparent volume of distribution); T1/2 (elimination half-life time); Cmax (peak concentration); Tmax (time to peak); AUC (area under plasma drug concentration-time curve); MRT (mean retention time); F % (bioavailability).

A short description of data set [4]: Brain tissue and whole blood concentration in SD rats after oral administration. Type of data set: in vivo. The following applies: rat, PO 10 mg/kg, 2 h after administration; for Kp at 2 h: brain / whole blood, read-out: Brain tissue/blood ratio. On the procedure:
In this assay, the pharmacokinetic characteristics of the compounds of the present application were assayed after administration of some of the compounds of the present application to SD rats by single oral administration and intravenous injection.
2. […] The mixture was stirred, vortexed and/or sonicated. Once a solution was obtained, the vehicle was gradually added to a final volume to reach the target concentration. The solution was vortexed, and sonicated to obtain a homogeneous solution.
Meanwhile, the IV group was not fasted and the PO group was fasted overnight (>12 hrs) and given food 2 hrs after drug administration. All animals had free access to water. The dosing regimen and pharmacokinetic sampling regimen are given in Table 6 and Table 7 below, respectively.
Rats were administered according to the above regimen, and blood and brain tissue samples were collected and processed at predetermined time points (collection and processing were performed according to conventional methods in the art).
The supernatant was diluted 2-fold with ultra-pure water, and the samples were analyzed by LC/MS.
Brain tissues were weighed and homogenized by adding 4-fold homogenizing solution (acetonitrile/water=1/1 v/v). […] The supernatant was diluted 2-fold with ultra-pure water, and the samples were analyzed by LC/MS.

[5] abbreviates: 72 hours, read-out: Ba/F3 HER2 A775-G776insYVMA IC50.
Setting [6] is: whole blood, NA: Exposure was too low to be counted.
[7] abbreviates: whole blood, PO 10 mg/kg, NA: Exposure was too low to be counted.
Where [8] appears, read: whole blood, read-out: Blood drug concentration.
The mark [9] stands for this setting: brain, NA: Exposure was too low to be counted, read-out: Brain tissue concentration.
Setting [10] is: in vivo, PO 10 mg/kg, NA: Exposure was too low to be counted.

Ba/F3 HER2 A775_G776insYVMA cells, sequence (P04626 with tags, fused parts or gaps DUP772-775): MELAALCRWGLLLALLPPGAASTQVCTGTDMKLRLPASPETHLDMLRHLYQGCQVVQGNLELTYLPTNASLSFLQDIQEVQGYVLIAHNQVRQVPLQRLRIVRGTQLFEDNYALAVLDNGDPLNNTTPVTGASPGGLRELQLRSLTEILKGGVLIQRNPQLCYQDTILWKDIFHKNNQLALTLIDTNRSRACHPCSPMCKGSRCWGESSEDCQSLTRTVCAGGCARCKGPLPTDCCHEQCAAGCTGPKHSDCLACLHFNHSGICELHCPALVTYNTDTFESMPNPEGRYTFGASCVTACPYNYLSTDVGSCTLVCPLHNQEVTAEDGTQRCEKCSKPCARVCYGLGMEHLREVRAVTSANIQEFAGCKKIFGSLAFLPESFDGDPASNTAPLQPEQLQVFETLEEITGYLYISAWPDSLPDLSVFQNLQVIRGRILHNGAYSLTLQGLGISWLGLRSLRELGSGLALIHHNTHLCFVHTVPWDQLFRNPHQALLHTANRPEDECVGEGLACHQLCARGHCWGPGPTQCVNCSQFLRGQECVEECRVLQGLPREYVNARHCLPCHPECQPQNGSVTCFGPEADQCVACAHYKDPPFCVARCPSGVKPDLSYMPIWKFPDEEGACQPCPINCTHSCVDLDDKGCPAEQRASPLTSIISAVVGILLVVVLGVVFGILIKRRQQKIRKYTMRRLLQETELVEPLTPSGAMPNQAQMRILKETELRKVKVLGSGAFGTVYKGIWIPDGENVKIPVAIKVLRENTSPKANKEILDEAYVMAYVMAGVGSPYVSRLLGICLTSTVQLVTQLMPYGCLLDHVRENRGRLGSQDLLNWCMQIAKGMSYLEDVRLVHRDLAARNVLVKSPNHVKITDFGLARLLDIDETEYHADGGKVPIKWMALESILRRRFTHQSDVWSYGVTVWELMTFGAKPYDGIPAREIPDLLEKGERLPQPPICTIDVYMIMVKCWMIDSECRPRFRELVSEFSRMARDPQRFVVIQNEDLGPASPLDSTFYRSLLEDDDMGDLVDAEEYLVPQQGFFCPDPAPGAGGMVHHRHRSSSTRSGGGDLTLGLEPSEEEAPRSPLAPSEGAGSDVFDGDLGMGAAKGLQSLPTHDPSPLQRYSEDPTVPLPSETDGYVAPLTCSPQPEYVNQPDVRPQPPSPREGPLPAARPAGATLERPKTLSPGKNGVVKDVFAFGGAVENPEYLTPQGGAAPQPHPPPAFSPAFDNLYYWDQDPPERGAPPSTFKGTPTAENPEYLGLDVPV
EGFR^WT kinase, sequence (P00533 25-1210): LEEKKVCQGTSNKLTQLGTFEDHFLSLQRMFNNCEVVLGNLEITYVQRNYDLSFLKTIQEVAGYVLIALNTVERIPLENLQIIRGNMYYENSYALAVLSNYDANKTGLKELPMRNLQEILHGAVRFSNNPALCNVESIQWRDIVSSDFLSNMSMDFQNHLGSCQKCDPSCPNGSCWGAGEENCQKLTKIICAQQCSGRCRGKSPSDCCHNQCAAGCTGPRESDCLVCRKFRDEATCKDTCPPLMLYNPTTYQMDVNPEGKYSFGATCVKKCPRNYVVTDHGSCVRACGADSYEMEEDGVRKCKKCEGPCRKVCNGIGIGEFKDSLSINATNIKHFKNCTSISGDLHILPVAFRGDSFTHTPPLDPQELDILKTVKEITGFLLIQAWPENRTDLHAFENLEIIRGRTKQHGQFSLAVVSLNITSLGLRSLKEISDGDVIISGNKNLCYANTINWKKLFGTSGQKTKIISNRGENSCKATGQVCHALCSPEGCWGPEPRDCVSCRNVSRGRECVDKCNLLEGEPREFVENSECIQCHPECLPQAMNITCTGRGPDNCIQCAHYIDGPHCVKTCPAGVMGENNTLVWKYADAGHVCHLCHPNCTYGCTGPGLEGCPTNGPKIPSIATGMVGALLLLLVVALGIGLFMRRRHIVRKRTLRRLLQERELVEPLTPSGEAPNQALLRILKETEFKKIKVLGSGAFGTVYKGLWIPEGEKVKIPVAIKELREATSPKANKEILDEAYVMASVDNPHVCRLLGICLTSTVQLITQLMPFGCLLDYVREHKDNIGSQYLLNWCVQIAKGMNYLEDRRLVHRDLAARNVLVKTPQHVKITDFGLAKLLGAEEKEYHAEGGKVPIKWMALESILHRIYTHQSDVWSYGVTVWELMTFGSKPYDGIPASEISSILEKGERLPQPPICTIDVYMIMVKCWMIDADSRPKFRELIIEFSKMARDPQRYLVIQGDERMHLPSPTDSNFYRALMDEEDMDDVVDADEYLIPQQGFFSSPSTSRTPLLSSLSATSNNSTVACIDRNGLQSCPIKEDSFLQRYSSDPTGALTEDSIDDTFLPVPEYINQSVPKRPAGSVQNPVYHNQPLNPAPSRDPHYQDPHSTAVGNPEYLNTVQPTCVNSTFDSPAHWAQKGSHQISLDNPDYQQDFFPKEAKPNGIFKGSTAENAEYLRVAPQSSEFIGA

The term IC50 denotes the concentration at which inhibition is half-maximal. The low end stands for greater potency, the high end for weaker potency. One may read the AUC(0-inf) as total exposure, with the tail of the curve extrapolated. Read a low AUC(0-inf) as less exposure. For orientation: AUC(0-t) means the area under the concentration-time curve up to a stated or last time point. A higher AUC(0-t) goes with high exposure. As usually defined, the half-life is the time needed for the level to fall by half in the phase considered. The low end stands for fast loss, the high end for slow loss. What is called bioavailability is the share of a dose that reaches the circulation, judged against a reference dose that is usually intravenous. As a reminder, the Cmax is the maximum level reached in the sampled fluid or tissue. For orientation: Tmax means the time at which the peak concentration occurs. Regarding `COc1c(NC(=O)/C=C/[C@H]2CCCN2C(C)C)ccc2ncnc(Nc3ccc(OCc4ccccn4)c(Cl)c3)c12` [Example 24, (R,E)-N-(4-((3-chloro-4-(pyridin-2-ylmethoxy)phenyl)amino)-5-methoxyquinazolin-6-yl)-3-(1-isopropylpyrrolidin-2-yl)acrylamide], the “T/C (%)” value in data set [1] was 12.4%. The same compound showed a half-maximal inhibitory concentration (IC50) on EGFR^WT kinase of 100 to 1000 nM. In addition, the GI50 in data set [2] (setting [5]) fell in the range of 1 to 5 nM. In addition, at HER2 kinase, the IC50 is < 10 nM. Further, the Cl_obs in data set [3] (IV 3 mg/kg) was found to be 32.2 ± 0.5 mL/min/kg. In data set [3] (whole blood, IV 3 mg/kg), the AUC(0-inf) was found to be 1550 ± 23 ng·h/mL, the AUC(0-t) was 1510 ± 26 ng·h/mL, the Vd amounted to 14 ± 1.3 L/kg and the half-life is 5.01 ± 0.45 h. Further, in data set [3] (setting [6]), the bioavailability is 25 ± 11.2%. Moreover, in data set [3] (setting [7]), the AUC(0-inf) was determined as 1470 ± 655 ng·h/mL, the area under the curve AUC(0-t) is 1260 ± 561 ng·h/mL, the peak level (Cmax) was 86.3 ± 32.7 ng/mL and the Tmax was 5.33 ± 2.89 h. In addition, the half-life in data set [3] (setting [7]) is 7.81 ± 3.71 h.

As for `CCOc1cc2ncc(C#N)c(Nc3ccc(OCc4ccccn4)c(Cl)c3)c2cc1NC(=O)/C=C/CN(C)C` [NERATINIB, neratinib, reference compound], in data set [1], the “effect on tumor size (in words)” value was “still remain significant growth” and the “T/C (%)” value was 45.9%. For the same compound, the GI50 in data set [2] (read-out: Ba/F3 HER2 A775-G776insYVMA IC50, 72 hours) was in the range of 10 to 100 nM. Besides, in data set [4] (setting [8]), the concentration at 2 h stood at 440 ng/mL. In addition, the Kp at 2 h in data set [4] came out at 0.0366. The concentration at 2 h in data set [4] (setting [9]) came out at 14.4 ng/g. The compound further displayed a Cl_obs in data set [3] (IV 3 mg/kg) of 20.8 ± 2.0 mL/min/kg. In data set [3] (in vivo, IV 3 mg/kg), this compound showed an area under the curve AUC(0-t) of 2390 ± 267 ng·h/mL and a half-life of 4.38 ± 0.55 h. Moreover, in data set [3] (setting [10]), the AUC(0-t) is 1470 ± 637 ng·h/mL, the Cmax was found to be 201 ± 66 ng/mL and the half-life was 2.97 ± 0.27 h. For the same compound, in data set [3] (whole blood, IV 3 mg/kg), the AUC(0-inf) amounted to 2420 ± 252 ng·h/mL and the Vd was found to be 7.94 ± 1.71 L/kg. The bioavailability in data set [3] (setting [6]) was 18.2 ± 7.89%. The same compound gave an AUC(0-inf) in data set [3] (setting [7]) of 1470 ± 638 ng·h/mL.

`CCOc1cc2ncc(C#N)c(Nc3ccc(OCc4ccccn4)c(Cl)c3)c2cc1NC(=O)/C=C/[C@H]1CCCN1C` [PYROTINIB, pyrotinib, reference compound]: in data set [1], the “effect on tumor size (in words)” value is on record as “still remain significant growth” and the “T/C (%)” value is listed as 38.3%. The GI50 in data set [2] (setting [5]) is 10 to 100 nM. The concentration at 2 h in data set [4] (setting [8]) stood at 884 ng/mL. For the same compound, the Kp at 2 h in data set [4] was 0.0291. Further, the concentration at 2 h in data set [4] (setting [9]) came out at 25.8 ng/g. This compound showed a Cl_obs in data set [3] (IV 3 mg/kg) of 6.04 ± 0.63 mL/min/kg. Moreover, in data set [3] (whole blood, IV 3 mg/kg), the AUC(0-inf) worked out at 8340 ± 890 ng·h/mL, the area under the curve AUC(0-t) was 8310 ± 892 ng·h/mL, the Vd came to 1.81 ± 0.26 L/kg and the half-life is 3.45 ± 0.24 h. Further, in data set [3] (setting [6]), the bioavailability worked out at 10.1 ± 4%. In addition, in data set [3] (setting [7]), the AUC(0-inf) stood at 2810 ± 1110 ng·h/mL, the AUC(0-t) was found to be 2790 ± 1110 ng·h/mL, the Cmax turned out to be 246 ± 76 ng/mL and the Tmax was found to be 4.33 ± 2.52 h. In data set [3] (setting [7]), this compound gave a half-life of 3.6 ± 0.37 h.
